Tested on: A/WSN/33 virus (M2-S31N)
Format: cell-based, influenza A virus
Conditions: not given

Q: For `c1c(CNC23CC4CC(CC(C4)C2)C3)noc1C1CC1` [14c], which “decrease of plaque number” value is on record?
A: The value was “more than 50%”.

Q: With `c1c(CNC23CC4CC(CC(C4)C2)C3)noc1C1CCC1` [14d] as the compound, how does the “decrease of plaque number” value read?
A: Its value is “more than 50%”.

Same assay, conditions: read-out: Plaque Reduction EC50

Q: With `OC1C2CC3CC1CC(NCc1cc(-c4cccs4)on1)(C3)C2` (centres unmarked) [30b] as the compound, how does the EC50 read?
A: The EC50 was < 1000 nM.

Q: For `OC12CC3CC(C1)CC(NCc1cc(-c4cccs4)on1)(C3)C2` [compound 30f], which EC50 is on record?
A: Its EC50 is < 1000 nM.

Molecular target: T1, S31N mutant of the A/M2 protein (Influenza A virus, UniProt P0DOF5, S31N)
Format: biochemical
Conditions: not given

Q: Which “% S31N inhibition” value does the source give for `CCCc1cc(CNC23CC4CC(CC(C4)C2)C3)no1` [14b] here?
A: The value was 81/49%.

Q: With `c1c(CNC23CC4CC(CC(C4)C2)C3)noc1C1CCC1` [14d] as the compound, how does the “% S31N inhibition” value read?
A: Its value is 84/N.T. %.

Q: For `COCc1cc(CNC23CC4CC(CC(C4)C2)C3)no1` [14e], which “% S31N inhibition” value is on record?
A: The value was 39/N.T. %.

Q: Which “% S31N inhibition” value does the source give for `CC(C)c1cc(CNC23CC4CC(CC(C4)C2)C3)no1` [14f] here?
A: Its value is 80/55%.

Q: Which “% S31N inhibition” value does the source give for `CSC(C)(C)Cc1cc(CNC23CC4CC(CC(C4)C2)C3)no1` [14g] here?
A: Its value is 70/N.T. %.

Q: For `c1cc(-c2cc(CNC34CC5CC(CC(C5)C3)C4)no2)cs1` [14i], which “% S31N inhibition” value is on record?
A: Its value is 90/N.T. %.

Q: Which “% S31N inhibition” value does the source give for `c1coc(-c2cc(CNC34CC5CC(CC(C5)C3)C4)no2)c1` [14j] here?
A: The value was 84/N.T. %.

Q: Which “% S31N inhibition” value does the source give for `COc1ccsc1-c1cc(CNC23CC4CC(CC(C4)C2)C3)no1` [14k] here?
A: The value was 90/87%.

Q: With `Clc1ccccc1-c1cc(CNC23CC4CC(CC(C4)C2)C3)no1` [14m] as the compound, how does the “% S31N inhibition” value read?
A: The value was 87/65%.

Q: Which “% S31N inhibition” value does the source give for `Brc1ccccc1-c1cc(CNC23CC4CC(CC(C4)C2)C3)no1` [14n] here?
A: Its value is 77/N.T. %.

Q: Which “% S31N inhibition” value does the source give for `Fc1cc(F)cc(-c2cc(CNC34CC5CC(CC(C5)C3)C4)no2)c1` [14o] here?
A: Its value is 78/N.T. %.

Q: Which “% S31N inhibition” value does the source give for `Fc1cccc(F)c1-c1cc(CNC23CC4CC(CC(C4)C2)C3)no1` [14p] here?
A: Its value is 85/68%.

Q: With `COc1cccc(-c2cc(CNC34CC5CC(CC(C5)C3)C4)no2)c1` [14r] as the compound, how does the “% S31N inhibition” value read?
A: Its value is 87/73%.

Q: With `CSc1ccccc1-c1cc(CNC23CC4CC(CC(C4)C2)C3)no1` [14s] as the compound, how does the “% S31N inhibition” value read?
A: The value was 79/N.T. %.

Q: Which “% S31N inhibition” value does the source give for `CCCc1nc(CNC23CC4CC(CC(C4)C2)C3)no1` [18b] here?
A: The value was 77/19%.

Q: For `CC(C)Cc1nc(CNC23CC4CC(CC(C4)C2)C3)no1` [18e], which “% S31N inhibition” value is on record?
A: The value was 62/N.T. %.

Q: With `c1cc(-c2nc(CNC34CC5CC(CC(C5)C3)C4)no2)cs1` [18g] as the compound, how does the “% S31N inhibition” value read?
A: The value was 81/N.T. %.

Q: Which “% S31N inhibition” value does the source give for `c1coc(-c2nc(CNC34CC5CC(CC(C5)C3)C4)no2)c1` [18h] here?
A: The value was 73/N.T. %.

Q: For `COc1ccc(-c2noc(CNC34CC5CC(CC(C5)C3)C4)n2)cc1OC` [20a], which “% S31N inhibition” value is on record?
A: The value was 39/N.T. %.

Q: For `COc1ccccc1-c1noc(CNC23CC4CC(CC(C4)C2)C3)n1` [20b], which “% S31N inhibition” value is on record?
A: The value was 58/N.T. %.

Q: Which “% S31N inhibition” value does the source give for `c1c(C2CCCCC2)noc1CNC12CC3CC(CC(C3)C1)C2` [20c] here?
A: Its value is 67/N.T. %.

Q: With `c1csc(-c2nnc(CNC34CC5CC(CC(C5)C3)C4)o2)c1` [26a] as the compound, how does the “% S31N inhibition” value read?
A: Its value is 52/N.T. %.

Q: With `c1csc(-c2nnc(CNC34CC5CC(CC(C5)C3)C4)s2)c1` [26b] as the compound, how does the “% S31N inhibition” value read?
A: Its value is 83/N.T. %.

Q: Which “% S31N inhibition” value does the source give for `c1ccc(-c2nnc(CNC34CC5CC(CC(C5)C3)C4)o2)cc1` [26c] here?
A: Its value is 61/N.T. %.

Q: Which “% S31N inhibition” value does the source give for `COc1ccc(-c2nnc(CNC34CC5CC(CC(C5)C3)C4)o2)cc1` [26d] here?
A: The value was 58/N.T. %.

Q: Which “% S31N inhibition” value does the source give for `c1csc(-c2ncc(CNC34CC5CC(CC(C5)C3)C4)s2)c1` [26e] here?
A: Its value is 75/N.T. %.

Q: Which “% S31N inhibition” value does the source give for `c1csc(-c2nc(CNC34CC5CC(CC(C5)C3)C4)cs2)c1` [26h] here?
A: Its value is 37/N.T. %.

Q: Which “% S31N inhibition” value does the source give for `c1ccc(-c2nc(CNC34CC5CC(CC(C5)C3)C4)cs2)cc1` [26i] here?
A: The value was 24/N.T. %.

Q: For `O=C1C2CC3CC1CC(NCc1cc(-c4cccs4)on1)(C3)C2` [30a], which “% S31N inhibition” value is on record?
A: The value was 78/N.T. %.

Q: For `OC1C2CC3CC1CC(NCc1cc(-c4cccs4)on1)(C3)C2` (centres unmarked) [30b], which “% S31N inhibition” value is on record?
A: The value was 91/56%.

Q: With `CC1(O)C2CC3CC1CC(NCc1cc(-c4cccs4)on1)(C3)C2` (centres unmarked) [30c] as the compound, how does the “% S31N inhibition” value read?
A: The value was 87/48%.

Q: Which “% S31N inhibition” value does the source give for `c1csc(-c2cc(CNC34CC5CC(C3)C3(CO3)C(C5)C4)no2)c1` (centres unmarked) [30d] here?
A: The value was 61/N.T. %.

Q: Which “% S31N inhibition” value does the source give for `c1csc(-c2cc(CNC34CC5COC(CC(C5)C3)C4)no2)c1` (centres unmarked) [30e] here?
A: The value was 72/N.T. %.

Q: Which “% S31N inhibition” value does the source give for `NC12CC3CC(CC(C3)C1)C2` [AMT (1), amantadine, reference compound] here?
A: Its value is 36%.

Q: For `Oc1ccc(NC23CC4CC(CC(C4)C2)C3)c(O)c1` [compound 5], which “% S31N inhibition” value is on record?
A: Its value is 67%.

Q: With `COc1ccc(-c2cc(CNC34CC5CC(CC(C5)C3)C4)no2)c(OC)c1` [compound 14t] as the compound, how does the “% S31N inhibition” value read?
A: Its value is 62/N.T. %.

Q: For `COc1ccc(-c2nc(CNC34CC5CC(CC(C5)C3)C4)no2)c(OC)c1` [compound 18m], which “% S31N inhibition” value is on record?
A: Its value is 82/N.T. %.

Q: Which “% S31N inhibition” value does the source give for `OC12CC3CC(O)(C1)CC(NCc1cc(-c4cccs4)on1)(C3)C2` [compound 30h] here?
A: Its value is 88/45%.

Molecular target: T1, S31N mutant of the A/M2 protein
Conditions: 100 µM drug; percent inhibition in TEVC assays was previously reported; cited from earlier work

Q: With `Cc1cc(CNC23CC4CC(CC(C4)C2)C3)no1` [14a] as the compound, how does the “% S31N inhibition” value read?
A: The value was 49/N.T. %.

Q: For `c1ccc(-c2cc(CNC34CC5CC(CC(C5)C3)C4)no2)cc1` [14l], which “% S31N inhibition” value is on record?
A: Its value is 91/N.T. %.

Q: With `COc1ccc(-c2cc(CNC34CC5CC(CC(C5)C3)C4)no2)cc1` [14q] as the compound, how does the “% S31N inhibition” value read?
A: The value was 87/N.T. %.

Q: Which “% S31N inhibition” value does the source give for `Cc1nc(CNC23CC4CC(CC(C4)C2)C3)no1` [18a] here?
A: Its value is 60/N.T. %.

Q: Which “% S31N inhibition” value does the source give for `CC(C)c1nc(CNC23CC4CC(CC(C4)C2)C3)no1` [18d] here?
A: The value was 70/N.T. %.

Q: For `c1csc(-c2nc(CNC34CC5CC(CC(C5)C3)C4)no2)c1` [18f], which “% S31N inhibition” value is on record?
A: The value was 83/N.T. %.

Q: Which “% S31N inhibition” value does the source give for `c1ccc(-c2nc(CNC34CC5CC(CC(C5)C3)C4)no2)cc1` [18i] here?
A: The value was 75/N.T. %.

Q: For `COc1ccc(-c2nc(CNC34CC5CC(CC(C5)C3)C4)no2)cc1` [18k], which “% S31N inhibition” value is on record?
A: Its value is 86/N.T. %.
